The structures appear in SMILES notation.

The test concerns human mature adipocytes. Description: Lipolytic activity: glycerol release by 3D culture of human mature adipocytes. The test is classed as cell-based. Conditions: 72 h of treatment, extract 0.5%. On the procedure:
Mature adipocytes were isolated from subcutaneous adipose tissue after digestion by collagenase. The isolated adipocytes were washed with a wash buffer and encapsulated in a peptidic hydrogel to form 3D adipocytes capsules of 25 μl in size. The formation of adipocytes capsules followed an internal standardized protocol to have about the same number of adipocytes between the capsules. Cells were then incubated for 24 h at 37° C. for stabilization. Treatments with Mastocarpus stellatus extract at 0.5% were initiated at D0 with a medium change; and the culture media were changed every day until 4 days of culture. At each culture media change, the cells secretions were collected, centrifuged and frozen at-80° C. for further analysis. Each culture condition was done in triplicate. The culture media after 72 h of treatment were collected. The concentrations of adiponectin and glycerol were evaluated by ELISA and colorimetric assays, respectively, using specific kits according to the manufacture's recommendations (adiponectin kit, Duoset, DY1065, R&D Systems; Glycerol kit, Randox, GY105).

For the compound `CC(C)NCC(O)c1ccc(O)c(O)c1` (centres unmarked) [Isoproterenol], the “Glycerol release (% of untreated), average” value (isoproterenol 1 μM (positive control)) is listed as 295.6 % of untreated. The “increase of glycerol release” value (isoproterenol 1 μM, vs untreated) is on record as “+196%”.

The values are drawn from patent US20250248922A1, “METHOD OF PREPARING A MASTOCARPUS STELLATUS EXTRACT” (GIVAUDAN SA, priority 2022, published 2025).
